Here are results for 19 compounds from patent US20240239788A1, “SMALL MOLECULE INHIBITORS OF KRAS G12D MUTANT” (Merck Sharp & Dohme LLC, priority 2021, published 2024).

Structures can show the parent of a compound that is named as a salt. Where two headings read alike, the source gives them in different places.

For experiment [1], the target named is KRAS protein containing G12D mutation (Homo sapiens (Human), UniProt P01116, G12D). The experiment can be described thus: SOS-catalyzed nucleotide exchange assay (GNE), TR-FRET. It is filed as biochemical. As to conditions: biotinylated KRAS G12D, SOS and GTP, 60-minute incubation. On the procedure: Compounds are added to this complex and then after a 60-minute incubation time the mixture is treated with SOS and unlabeled GTP. Small molecule inhibitors stabilize the Bodipy-GDP complex whereas the untreated protein rapidly exchanges Bodipy-GDP for unlabeled GTP resulting in reduced TR-FRET signal.
Sequence of KRAS protein containing G12D mutation (P01116 other isoform, or with tags, fused parts or gaps G12D (already in the parent)): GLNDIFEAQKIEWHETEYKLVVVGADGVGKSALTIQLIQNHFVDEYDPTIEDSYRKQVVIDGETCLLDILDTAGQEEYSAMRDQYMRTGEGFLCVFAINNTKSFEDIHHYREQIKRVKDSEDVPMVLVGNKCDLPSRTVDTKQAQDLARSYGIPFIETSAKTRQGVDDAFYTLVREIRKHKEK
This solution is referred to as biotinylated KRAS G12D stock solution.
For orientation: In TR-FRET formats the signal depends on donor and acceptor labels being close together.

The test system of experiment [2] is AsPC-1 cells containing homozygous KRAS-G12D activating mutation. Nature of the experiment: Cellular phospho-ERK assay with 10% FBS (Examples 107a-256). It is filed as cell-based. On the procedure: 5% CO2 for 2 hours. […] Assay plates were read on a EnVision Multimode Plate Reader (PerkinElmer) and the ratio of p-Erk vs total Erk in each well was used as the final readout.

Where [3] appears, read: Homo sapiens, ASPC1, 2 h, read-out: IC50 (nM) pERK (cell with FBS 10%), AsPC-1 cells, 10% fetal bovine serum, 2 hours, ratio of p-Erk vs total Erk.
Where [4] appears, read: read-out: IC50 (nM) pERK (cell with FBS 10%), AsPC-1 cells, 10% fetal bovine serum, 2 hours, ratio of p-Erk vs total Erk.

In the case of `C#Cc1cccc2c(F)c(O)cc(-c3c(F)cc4c(N5C[C@H]6CC[C@@](C)(C5)N6)nc(OC[C@@]56CCCN5C[C@H](F)C6)nc4c3F)c12` [202b, 4-(6,8-difluoro-2-(((2R,7aS)-2-fluorotetrahydro-1H-pyrrolizin-7a(5H)-yl)methoxy)-4-((1S,5R)-1-methyl-3,8-diazabicyclo[3.2.1]octan-3-yl)quinazolin-7-yl)-5-ethynyl-1-fluoronaphthalen-2-ol], the IC50 stood at 3.94 nM in experiment [1] and 302 nM in experiment [2] (setting [3]).

On to `C[C@]12CCC(CN(c3nc(OC[C@H]4CC[C@@]5(CO)CCCN45)nc4c(F)c(-c5cc(O)cc6cccc(Cl)c56)c(F)cc34)C1)N2` [243a, 5-chloro-4-(6,8-difluoro-2-(((38,7aS)-7a-(hydroxymethyl)hexahydro-1H-pyrrolizin-3-yl)methoxy)-4-((1S,5R)-1-methyl-3,8-diazabicyclo[3.2.1]octan-3-yl)quinazolin-7-yl)naphthalen-2-ol], for which the IC50 in experiment [1] came out at 346 nM; in experiment [2] (setting [3]) it was 30000 nM.

As to `CN(C)CC1(COc2nc(N3C[C@H]4CC[C@@](C)(C3)N4)c3cc(F)c(-c4cc(O)cc5ccccc45)c(F)c3n2)CC1C(=O)O` (stereo partly drawn) [Ex. 107, 2-(((6,8-difluoro-7-(3-hydroxynaphthalen-1-yl)-4-((1S,5R)-1-methyl-3,8-diazabicyclo[3.2.1]octan-3-yl)quinazolin-2-yl)oxy)methyl)-2-((dimethylamino)methyl)cyclopropane-1-carboxylc acid], the IC50 in experiment [1] came out at 25.4 nM; in experiment [2] (setting [4]) it was 30000 nM.

Consider `Cc1cc2[nH]nc(C)c2c(-c2c(F)cc3c(N4C[C@H]5CC[C@@H](C4)N5)nc(OCC4(CN5CCOCC5)CC4)nc3c2F)c1OC(F)F` [Ex. 127, 4-((1-(((4-((1R,5S)-3,8-diazabicyclo[3.2.1]octan-3-yl)-7-(5-(difluoromethoxy)-3,6-dimethyl-1H-indazol-4-yl)-6,8-difluoroquinazolin-2-yl)oxy)methyl)cyclopropyl)methyl) morpholine], for which the IC50 worked out at 39 nM in experiment [1] and 3600 nM in experiment [2] (setting [3]).

`Nc1cc2cccc(Cl)c2c(-c2c(F)cc3c(N4C[C@H]5CC[C@@H](C4)N5)nc(OC[C@@]45CCCN4C[C@H](F)C5)nc3c2F)n1` [Ex. 132, 1-(4-((1R,5S)-3,8-diazabicyclo[3.2.1]octan-3-yl)-6,8-difluoro-2-(((2R,7aS)-2-fluorotetrahydro-1H-pyrrolizin-7a(5H)-yl)methoxy)quinazolin-7-yl)-8-chloroisoquinolin-3-amine]: the IC50 in experiment [1] is 347 nM; in experiment [2] (setting [3]), 5580 nM.

For the compound `Nc1cnc(C(F)(F)F)c(-c2c(F)cc3c(N4C[C@H]5CC[C@@H](C4)N5)nc(OC[C@@]45CCCN4C[C@H](F)C5)nc3c2F)n1` [Ex. 134, 6-(4-((1R,5S)-3,8-diazabicyclo[3.2.1]octan-3-yl)-6,8-difluoro-2-(((2R,7aS)-2-fluorotetrahydro-1H-pyrrolizin-7a(5H)-yl)methoxy)quinazolin-7-yl)-5-(trifluoromethyl)pyrazin-2-amine], the figures for the IC50 in experiment [1] and in experiment [2] (setting [3]) were 870 nM and 13600 nM, respectively.

Take `Cc1nc(N)nc(-c2c(F)cc3c(N4C[C@H]5CC[C@@H](C4)N5)nc(OC[C@@]45CCCN4C[C@H](F)C5)nc3c2F)c1C(F)(F)F` [Ex. 135, 4-(4-((1R,5S)-3,8-diazabicyclo[3.2.1]octan-3-yl)-6,8-difluoro-2-(((2R,7aS)-2-fluorotetrahydro-1H-pyrrolizin-7a(5H)-yl)methoxy)quinazolin-7-yl)-6-methyl-5-(trifluoromethyl)pyrimidin-2-amine]: the IC50 was 54.6 nM in experiment [1] and 469 nM in experiment [2] (setting [3]).

As to `CN(C)C[C@@]1(COc2nc(N3C[C@H]4CC[C@@](C)(C3)N4)c3cc(C#N)c(-c4cc(O)cc5ccccc45)c(F)c3n2)CC1(F)F` [Ex. 136a, 2-(((R)-1-((dimethylamino)methyl)-2,2-difluorocyclopropyl)methoxy)-8-fluoro-7-(3-hydroxynaphthalen-1-yl)-4-((1S,5R)-1-methyl-3,8-diazabicyclo[3.2.]octan-3-yl)quinazoline-6-carbonitrile], the IC50 in experiment [1] is 4.93 nM; in experiment [2] (setting [4]) it was 645 nM.

Regarding `Cc1cc2[nH]ncc2c(-c2c(F)cc3c(N4CC5CCC(C4)N5)nc(OC[C@@]45CCCN4C[C@H](F)C5)nc3c2F)c1C(F)(F)F` [Ex. 140, 4-((1R,5S)-3,8-diazabicyclo[3.2.1]octan-3-yl)-6,8-difluoro-2-(((2R,7aS)-2-fluorotetrahydro-1H-pyrrolizin-7a(5H)-yl)meth-oxy)-7-(6-methyl-5-(trifluoromethyl)-1H-indazol-4-yl)quin-azoline, TFA], the IC50 came out at 3.88 nM in experiment [1] and 113 nM in experiment [2] (setting [3]).

As to `CCc1cccc2cccc(-c3c(F)cc4c(N5C[C@H]6CC[C@@](C)(C5)N6)nc(OC[C@@]56CCCN5C[C@H](F)C6)nc4c3F)c12` [Ex. 141, 7-(8-ethylnaphthalen-1-yl)-6,8-difluoro-2-(((2R,7aS)-2-fluorotetrahydro-1H-pyrrolizin-7a(5H)-yl)methoxy)-4-((1S,5R)-1-methyl-3,8-diazabicyclo[3.2.1]octan-3-yl)-quinazoline, TFA], the IC50 is 139 nM in experiment [1] and 16400 nM in experiment [2] (setting [3]).

In the case of `C#Cc1csc2ccnc(-c3c(F)cc4c(N5C[C@H]6CC[C@@H](C5)N6)nc(OC[C@@]56CCCN5C[C@H](F)C6)nc4c3F)c12` [Ex. 152, 4-(4-((1R,5S)-3,8-diazabicyclo[3.2.1]octan-3-yl)-6,8-difluoro-2-(((2R,7aS)-2-fluorotetrahydro-1H-pyrrolizin-7a(5H)-yl)-methoxy)quinazolin-7-yl)-3-ethynylthieno[3,2-c]pyridine], the IC50 in experiment [1] stood at 848 nM; in experiment [2] (setting [3]) it was 5190 nM.

In the case of `C[C@]12CC[C@H](CN(c3nc(OC[C@@]45CCCN4C[C@H](F)C5)nc4c(F)c(-c5cc(O)cc6cccc(C7CC7)c56)c(F)cc34)C1)N2` [Ex. 159, 5-cyclopropyl-4-(6,8-difluoro-2-(((2R)-2-fluorotetrahydro-1H-pyrrolizin-7a(5H)-yl)-methoxy)-4-((1S,5R)-1-methyl-3,8-diaza-bicyclo[3.2.1]octan-3-yl)quinazolin-7-yl)-naphthalen-2-ol], the IC50 was 4.28 nM in experiment [1] and 139 nM in experiment [2] (setting [3]).

For `C[C@]12CCC(CN(c3nc(OC[C@@]45CCCN4C[C@H](F)C5)nc4c(F)c(-c5cc(O)cc6cccc(Cl)c56)c(F)c(F)c34)C1)N2` [Ex. 172, 5-chloro-4-(5,6,8-trifluoro-2-(((2R,7aS)-2-fluorotetrahydro-1H-pyrrolizin-7a(5H)-yl)-methoxy)-4-((1S,5R)-1-methyl-3,8-diaza-bicyclo[3.2.1]octan-3-yl)quinazolin-7-yl)-naphthalen-2-ol, 2TFA], the IC50 in experiment [1] worked out at 17.1 nM; in experiment [2] (setting [3]), 3500 nM.

Regarding `CN1CCC[C@H]1COc1nc(N2C[C@H]3CC[C@@](C)(C2)N3)c2cc(F)c(-c3cc(O)cc4cccc(Cl)c34)c(F)c2n1` [Ex. 185, 5-chloro-4-(6,8-difluoro-4-((1S,5R)-1-methyl-3,8-diaza-bicyclo-[3.2.1]octan-3-yl)-2-(((S)-1-methyl-pyrrolidin-2-yl)meth-oxy)quinazolin-7-yl)-naphthalen-2-ol], the IC50 in experiment [1] worked out at 732 nM; in experiment [2] (setting [3]), 7040 nM.

Regarding `C[C@]12CC[C@H](CN(c3nc(OC[C@@]45CCCN4C[C@H](F)C5)nc4c(F)c(-c5c6cn[nH]c6cc6cccc(Cl)c56)c(F)cc34)C1)N2` [Ex. 187, 5-chloro-4-(6,8-difluoro-2-(((2R,7aS)-2-fluorotetrahydro-1H-pyrrolizin-7a(5H)-yl)-methoxy)-4-((1S,5R)-1-methyl-3,8-diaza-bicyclo[3.2.1]octan-3-yl)quinazolin-7-yl)-1H-benzo[f]indazole], the IC50 in experiment [1] stood at 27.3 nM; in experiment [2] (setting [3]), 1100 nM.

As for `C[C@]12CC[C@H](CN(c3nc(OC[C@@]45CCCN4C[C@H](F)C5)nc4c(F)c(-c5nc(N)nc6cccc(Cl)c56)c(F)cc34)C1)N2` [Ex. 188, 5-chloro-6′,8′-difluoro-2′-(((2R,7aS)-2-fluoro-tetrahydro-1H-pyrrol-izin-7a(5H)-yl)meth-oxy)-4'-((1S,5R)-1-methyl-3,8-diaza-bicyclo[3.2.1]octan-3-yl)-[4,7′-biquinazolin]-2-amine], the IC50 turned out to be 3400 nM in experiment [1] and 30000 nM in experiment [2] (setting [3]).

On to `Fc1cc2c(N3C[C@H]4CC[C@@H](C3)N4)nc(OC[C@@]34CCCN3C[C@H](F)C4)nc2c(F)c1-c1ccnc2cccc(Cl)c12` [Ex. 194, 4-((1R,5S)-3,8-diaza-bicyclo[3.2.1]octan-3-yl)-7-(5-chloroquinolin-4-yl)-6,8-difluoro-2-(((2R,7aS)-2-fluoro-tetrahydro-1H-pyrrol-izin-7a(5H)-yl)meth-oxy)quinazoline], for which the IC50 in experiment [1] is 1920 nM; in experiment [2] (setting [3]), 11800 nM.

As for `C#Cc1cccc2cc3[nH]ncc3c(-c3c(F)cc4c(N5C[C@H]6CC[C@@](C)(C5)N6)nc(OC[C@@]56CCCN5C[C@H](F)C6)nc4c3F)c12` [Ex. 195, 4-(6,8-difluoro-2-(((2R, 7aS)-2-fluorotetra-hydro-1H-pyrrolizin-7a(5H)-yl)methoxy)-4-((1S,5R)-1-methyl-3,8-diazabicyclo[3.2.1]-octan-3-yl)quinazolin-7-yl)-5-ethynyl-1H-benzo[f]indazole], the IC50 was determined as 4.36 nM in experiment [1] and 79.6 nM in experiment [2] (setting [3]).

`C#Cc1ccc(F)c2cccc(-c3c(F)cc4c(N5C[C@H]6CC[C@@](C)(C5)N6)nc(OC[C@@]56CCCN5C[C@H](F)C6)nc4c3F)c12` [Ex. 196, 7-(8-ethynyl-5-fluoro-naphthalen-1-yl)-6,8-difluoro-2-(((2R,7aS)-2-fluorotetrahydro-1H-pyrrolizin-7a(5H)-yl)-methoxy)-4-((1S,5R)-1-methyl-3,8-diaza-bicyclo[3.2.1]octan-3-yl)quinazoline]: the IC50 in experiment [1] was found to be 45.7 nM; in experiment [2] (setting [3]) it was 3410 nM.
